Read-outs that look alike come from different tables or passages of the source.
How the values were obtained:
[1] = tested on: isolated guinea pig hearts (coronary artery); test: coronary vascular dilative effect in isolated guinea pig hearts (Langendorff's method); parameters: species or system guinea pig (Heartley); settings: 37° C., 0.1 ml administered into the coronary artery
Protocol: The coronary vascular dilative effect of 3N-substituted 3,4-dihydropyrimidine derivatives was tested.
Heartley guinea pigs (weight 400-500 g) were killed by a blow on the head and their hearts were immediately isolated. The hearts were perfused with Krebs-Henseleit solution bubbled with a mixture of 95% O2 +5% CO2 and maintained at 37° C. at a constant rate of 6 ml/minute according to the Langendorff's method [J. Pharmacol. Methods 2, 143 (1979)]. The perfusion pressure was measured by a pressure transducer continuously. Samples were prepared by emulsifying 1 mg of a test compound in 1 ml of a mixture of dimethylsulfoxide and physiological saline solution (1:9) and diluting with physiological saline solution to the predetermined concentration. 0.1 ml of the diluted solution was administered into the coronary artery via a rubber tube connected to an aorta cannula to obtain ED50 (μg/heart) data as shown in Table 3. The numbers of the compounds in the Table correspond respectively to those of the working examples described above.

vertebral artery = test: vascular resistance of the vertebral artery in anesthetized dogs (ED30); assay type: in vivo, dog; settings: Canis lupus familiaris, intravenous injection
Protocol: The pharmacological effect (ED30) of the compounds of the present invention with respect to the vascular resistance of the vertebral artery in anesthetized dogs was treated by the following procedure.
Adult dogs of either sex (7-14 kg in body weight) were anesthetized with at first thiopental sodium (35 mg/kg, intraperitoneal), anesthetized with urethane (400 mg/kg, intravenous) and chloralose (60 mg/kg, intravenous) and kept under artificial respiration throughout the experiment. After thoracotomy at the left first intercostal space, the vertebral artery was exposed and blood flow was measured with intracorporeal flow probe connected to an electromagnetic flowmeter (MF-27, Nihon Kohden).
At the same time, continuous measurement of the following parameters was made: systemic blood pressure (mean pressure) at the right femoral artery, the limb lead II ECG, the heart rate with a tachometer triggered by the R wave of ECG, and the vascular resistance determined by loading a electronic divider unit (EO-601 G, Nihon Kohden) with the mean values of blood pressure and vertebral artery blood flow. All of these parameters were recorded simultaneously on a polygraph (RM-600, Nihon Kohden).
All the test compounds were injected through a cannula inserted into the femoral vein.
The ED30 (μg/kg) values obtained by intravenous injection are listed in Table 4, wherein the Compound Numbers are keyed to the Example Numbers.

[2] = acute toxicity (LD50), Litchfield-Wilcoxon method; parameters: species or system mouse (male ddY); settings: mouse, in vivo, emulsion in 10% dimethyl sulfoxide
Protocol: The acute toxicity (LD50) data of compound No. 28 of the present invention as administered to two groups of 5 or 6-week old male ddY mice were obtained by the Litchfield-Wilcoxon method. One group of mice was fasted overnight prior to oral administration. To each group of mice, the test compound was administered in the form of emulsion in 10% dimethyl sulfoxide.

[3] = tested on: conscious spontaneously hypertensive rats (SHR); test: hypotensive action in conscious spontaneously hypertensive rats (SHR); assay type: in vivo, rat (SHR); settings: 10 mg/kg orally
Protocol: A selected compound of the present invention was tested for its hypotensive action in conscious spontaneously hypertensive rats (SHR).
A group of 17 to 20-week old male SHR were anesthetized with ether and a cannula was inserted into the left femoral artery. At least one day after the operation, the cannula was connected to a pressure transducer and the blood pressure was measured continuously under conscious and unrestrained condition, thereby obtaining the data shown in Table 6. The test compound as clear solution dissolved in 10% ethanol was administered orally at a dose of 10 mg/kg (body weight) to each animal fasted overnight.

Row | Structure (SMILES) | ED50 (coronary vascular dilative effect) [1] [μg/heart] | ED30 (vertebral artery) [µg/kg] | LD50 ([2]; male ddY mice fasted overnight, oral, read-out: LD50 oral) [mg/kg] | LD50 ([2]; male ddY mice, intravenous, read-out: LD50 intravenous) [mg/kg] | time of maximum blood pressure decrease [3] [h] | Blood pressure decrease, 6 hours ([3]; 6 hours) | Blood pressure decrease, maximum decrease ([3]; in 2 hrs) [%]
1 | CC1=NC(C)=C(C(=O)OCC2CC2)C(c2ccccc2[N+](=O)[O-])N1C(=O)OCCN(C)Cc1ccccc1Cl (stereo not drawn) [Compound 6] | 0.0092 | 1.4 | – | – | – | – | –
2 | CC1=NC(C)=C(C(=O)OCC2CC2)C(c2ccccc2[N+](=O)[O-])N1C(=O)OCCN(C)Cc1ccc([N+](=O)[O-])cc1 (stereo not drawn) [Compound 7] | 0.0012 | 0.71 | – | – | – | – | –
3 | CC1=NC(C)=C(C(=O)OCC2CC2)C(c2ccccc2[N+](=O)[O-])N1C(=O)OCCCCCN(C)Cc1ccccc1 (stereo not drawn) [Compound 9] | 0.10 | 3.9 | – | – | – | – | –
4 | CC1=NC(C)=C(C(=O)OC(C)C)C(c2ccccc2[N+](=O)[O-])N1C(=O)OCCN(C)Cc1ccccc1 (stereo not drawn) [Compound 10] | 0.060 | 0.54 | – | – | – | – | –
5 | CC1=NC(C)=C(C(=O)OCC2CC2)C(c2ccccc2[N+](=O)[O-])N1C(=O)OCCN(C)Cc1ccc(F)cc1 (stereo not drawn) [Compound 11] | 0.030 | 0.55 | – | – | – | – | –
6 | CC1=NC(C)=C(C(=O)OCC2CC2)C(c2ccccc2[N+](=O)[O-])N1C(=O)OCCN1CCc2ccccc2C1 (stereo not drawn) [Compound 21] | 0.45 | 2 | – | – | – | – | –
7 | CC1=NC(C)=C(C(=O)OCC2CC2)C(c2ccccc2[N+](=O)[O-])N1C(=O)OCCN(CCCc1ccccc1)Cc1ccccc1 (stereo not drawn) [Compound 28, 3-[2-{N-benzyl-N-(3-phenylpropyl)amino}ethoxycarbonyl]-5-cyclopropylmethoxycarbonyl-2,6-dimethyl-4-(2-nitrophenyl)-3,4-dihydropyrimidine] | – | 4.2 | > 1000 | 180 to 200 | 2 | 10-20% | 35

Reference: patent US4772602A, “N-substituted 3,4-dihydropyrimidine derivatives as agents for treating disorders of cardiovascular system” (Suntory Limited, priority 1985, dated 1988)
